IC50 data for 11 compounds are collected here from patent US10821115B2, “Compounds that inhibit Mcl-1 protein” (priority 2017, dated 2020).

Assay [1] concerns human multiple myeloma cell line, OPM-2. Description: Cell viability assay (OPM-2 10 FBS), CellTiter-Glo. The format is cell-based. The method, boiled down:
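3000 cells/well, RPMI 1640 + 10% FBS; serial compound dilutions, 16 h, 37 °C/5% CO2.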

Assay [2] concerns the target recombinant human Mcl-1 (residues 171-327) / Bim interaction (Homo sapiens (Human), UniProt Q07820). Description: biochemical. The assay is classed as binding. The settings on record: read-out: Mcl-1 HTRF IC50.
[3] abbreviates: 0.1 nM Mcl-1(171-327), 0.05 nM biotin-Bim (51-76).
The mark [4] stands for this setting: Homo sapiens, OPM-2, 16 h, read-out: OPM-2 10% FBS IC50 IP, OPM-2 cells, 10% FBS, 16 h, CellTiter-Glo.
Where [5] appears, read: TR-FRET, Mcl-1(171-327) / biotin-Bim (51-76).
[6] abbreviates: read-out: OPM-2 10% FBS IC50 IP, OPM-2 cells, 10% FBS, 16 h, CellTiter-Glo.

Read-outs that look alike come from different tables or passages of the source.

Chain of recombinant human Mcl-1 (residues 171-327) / Bim interaction (Q07820 171-327): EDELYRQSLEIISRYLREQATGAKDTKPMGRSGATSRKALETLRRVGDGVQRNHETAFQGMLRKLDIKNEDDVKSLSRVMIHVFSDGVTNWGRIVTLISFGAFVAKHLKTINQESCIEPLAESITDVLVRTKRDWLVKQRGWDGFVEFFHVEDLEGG

One may read the IC50 as the midpoint of a concentration-inhibition curve. For `CO[C@@]1(CN(C)CCN2CCOCC2)/C=C/C[C@H](C)[C@@H](C)S(=O)(=O)NC(=O)c2ccc3c(c2)N(C[C@@H]2CC[C@H]21)C[C@@]1(CCCc2cc(Cl)ccc21)CO3` [Example 35, (1S,3′R,6′R,7′S,8′E,11′S,12′R)-6-chloro-7′-methoxy-11′,12′-dimethyl-7′-((methyl(2-(4-morpholinyl)ethyl)amino)methyl)-3,4-dihydro-2H,15′H-spiro[naphthalene-1,22′-[20]oxa[13]thia[1,14]diazatetracyclo [14.7.2.0~3,6~.0~19,24~]pentacosa[8,16,18,24]tetraen]-15′-one 13′,13′-dioxide], the IC50 worked out at 235 nM in assay [1] (Homo sapiens, OPM-2, 16 h, read-out: OPM-2 10% FBS IC50 IP, OPM-2 cells, 10% FBS, 16 h incubation) and 0.218 nM in assay [2] (setting [3]).

On to `C[C@@H]1[C@@H](C)C[C@@H]2C=CC[C@](O)(C2)[C@@H]2CC[C@H]2CN2C[C@@]3(CCCc4cc(Cl)ccc43)COc3ccc(cc32)C(=O)NS1(=O)=O` [Example 100056, (1S,3′R,6′R,7′S,11′S,13′S,14′R)-6-chloro-7′-hydroxy-13′,14′-dimethyl-3,4-dihydro-2H,17′H-spiro[naphthalene-1,24′-[22]oxa[15]thia[1,16]diazapentacyclo [16.7.2.1~7,11~.0~3,6~.0~21,26~]octacosa [9,18,20,26]tetraen]-17′-one 15′,15′-dioxide], for which the IC50 in assay [1] (setting [4]) stood at 1680 nM; in assay [2] (setting [5]), 0.424 nM.

As to `CO[C@@]1(C#CCO)/C=C/C[C@H](C)[C@@H](C)S(=O)(=O)NC(=O)c2ccc3c(c2)N(C[C@@H]2CC[C@H]21)C[C@@]1(CCCc2cc(Cl)ccc21)CO3` [Example 100344, (1S,3′R,6′R,7′S,8′E,11′S,12′R)-6-chloro-7′-(3-hydroxy-1-propyn-1-yl)-7′-methoxy-11′,12′-dimethyl-3,4-dihydro-2H,15′H-spiro[naphthalene-1,22′-[20]oxa[13]thia[1,14]diazatetracyclo [14.7.2.0~3,6~.0~19,24~]pentacosa[8,16,18,24]tetraen]-15′-one 13′,13′-dioxide], the values for the IC50 in assay [1] (setting [4]) and in assay [2] (setting [5]) were 290 nM and 0.309 nM, respectively.

Take `CO[C@]1(CN2CCN3CCC(F)(F)C[C@H]3C2)/C=C/C[C@H](C)[C@@H](C)S(=O)(=O)NC(=O)c2ccc3c(c2)N(C[C@@H]2CC[C@H]21)C[C@@]1(CCCc2cc(Cl)ccc21)CO3` (single isomer, unassigned) [Example 299]: the IC50 worked out at 456 nM in assay [1] (read-out: OPM-2 10% FBS IC50 IP, OPM-2 cells, 10% FBS, 16 h incubation) and 0.367 nM in assay [2] (setting [3]).

For the compound `C[C@@H]1[C@@H](C)C/C=C/[C@@](O)(CC(=O)N2CCCCC2)[C@@H]2CC[C@H]2CN2C[C@@]3(CCCc4cc(Cl)ccc43)COc3ccc(cc32)C(=O)NS1(=O)=O` [Example 100257, (1S,3′R,6′R,7′S,8′E,11′S,12′R)-6-chloro-7′-hydroxy-11′,12′-dimethyl-7′-(2-oxo-2-(1-piperidinyl)ethyl)-3,4-dihydro-2H,15′H-spiro[naphthalene-1,22′-[20]oxa[13]thia[1,14]diazatetracyclo [14.7.2.0~3,6~.0~19,24~]pentacosa[8,16,18,24]tetraen]-15′-one 13′,13′-dioxide], the IC50 in assay [1] (setting [6]) came to 80 nM; in assay [2] (setting [5]), 0.18 nM.

For `CO[C@@]1(CC(=O)C(C)C)/C=C/C[C@H](C)[C@@H](C)S(=O)(=O)NC(=O)c2ccc3c(c2)N(C[C@@H]2CC[C@H]21)C[C@@]1(CCCc2cc(Cl)ccc21)CO3` [Example 100373, (1S,3′R,6′R,7′S,8′E,11′S,12′R)-6-chloro-7′-methoxy-11′,12′-dimethyl-7′-(3-methyl-2-oxobutyl)-3,4-dihydro-2H,15′H-spiro[naphthalene-1,22′-[20]oxa[13]thia[1,14]diazatetracyclo [14.7.2.0~3,6~.0~19,24~]pentacosa[8,16,18,24]tetraen]-15′-one 13′,13′-dioxide], the IC50 in assay [1] (setting [4]) was 736 nM; in assay [2], 0.318 nM.

In the case of `CO[C@]1(C#CCN2CCOCC2)/C=C/C[C@H](C)[C@@H](C)S(=O)(=O)NC(=O)c2ccc3c(c2)N(C[C@@H]2CC[C@H]21)C[C@@]1(CCCc2cc(Cl)ccc21)CO3` [Example 100409, (1S,3′R,6′R,7′R,8′E,11′S,12′R)-6-chloro-7′-methoxy-11′,12′-dimethyl-7′-(3-(4-morpholinyl)-1-propyn-1-yl)-3,4-dihydro-2H,15′H-spiro[naphthalene-1,22′-[20]oxa[13]thia[1,14]diazatetracyclo [14.7.2.0~3,6~.0~19,24~]pentacosa[8,16,18,24]tetraen]-15′-one 13′,13′-dioxide], the IC50 amounted to 206 nM in assay [1] (setting [6]) and 0.124 nM in assay [2] (setting [5]).

Turning to `CO[C@@]1(C[C@@H](C)O)/C=C/C[C@H](C)[C@@H](C)S(=O)(=O)NC(=O)c2ccc3c(c2)N(C[C@@H]2CC[C@H]21)C[C@@]1(CCCc2cc(Cl)ccc21)CO3` [Example 100436, (1S,3′R,6′R,7′S,8′E,11′S,12′R)-6-chloro-7′-((2R)-2-hydroxypropyl)-7′-methoxy-11′,12′-dimethyl-3,4-dihydro-2H,15′H-spiro[naphthalene-1,22′-[20]oxa[13]thia[1,14]diazatetracyclo [14.7.2.0~3,6~.0~19,24~]pentacosa[8,16,18,24]tetraen]-15′-one 13′,13′-dioxide], the IC50 in assay [1] (setting [6]) is 335 nM; in assay [2] (setting [5]), 0.076 nM.

For the compound `CO[C@]1(CCN2CCN3CCCC[C@@H]3C2)/C=C/C[C@H](C)[C@@H](C)S(=O)(=O)NC(=O)c2ccc3c(c2)N(C[C@@H]2CC[C@H]21)C[C@@]1(CCCc2cc(Cl)ccc21)CO3` [Example 100591, (1S,3′R,6′R,7′R,8′E,11′S,12′R)-6-chloro-7′-methoxy-11′,12′-dimethyl-7′-(2-((9aR)-octahydro-2H-pyrido[1,2-a]pyrazin-2-yl)ethyl)-3,4-dihydro-2H,15′H-spiro[naphthalene-1,22′-[20]oxa[13]thia[1,14]diazatetracyclo [14.7.2.0~3,6~.0~19,24~]pentacosa[8,16,18,24]tetraen]-15′-one 13′,13′-dioxide], the IC50 in assay [1] (setting [4]) amounted to 60 nM; in assay [2] (setting [5]), 0.075 nM.

Take `C[C@@H]1[C@@H](C)CCC[C@@](O)(C2SCCCS2)[C@@H]2CC[C@H]2CN2C[C@@]3(CCCc4cc(Cl)ccc43)COc3ccc(cc32)C(=O)NS1(=O)=O` [Example 100238, (1S,3′R,6′R,7′S,11′S,12′R)-6-chloro-7′-(1,3-dithian-2-yl)-7′-hydroxy-11′,12′-dimethyl-3,4-dihydro-2H,15′H-spiro[naphthalene-1,22′-[20]oxa[13]thia[1,14]diazatetracyclo [14.7.2.0~3,6~.0~19,24~]pentacosa[16,18,24]trien]-15′-one 13′,13′-dioxide]: the IC50 turned out to be 747 nM in assay [1] (setting [4]) and 0.474 nM in assay [2] (setting [5]).

Consider `CC[C@@H]1CCCC[C@@](COC)(OC)[C@@H]2CC[C@H]2CN2C[C@@]3(CCCc4cc(Cl)ccc43)COc3ccc(cc32)C(=O)NS1(=O)=O` [Example 100038, (1S,3′R,6′R,7′R,12′R)-6-chloro-12′-ethyl-7′-methoxy-7′-(methoxymethyl)-3,4-dihydro-2H,15′H-spiro[naphthalene-1,22′-[20]oxa[13]thia[1,14]diazatetracyclo [14.7.2.0~3,6~.0~19,24~]pentacosa[16,18,24]trien]-15′-one 13′,13′-dioxide], for which the IC50 in assay [1] (setting [4]) is 2560 nM; in assay [2] (setting [5]) it was 1.66 nM.
